Patent US20120270848A1, “Novel Compositions and Therapeutic Methods Using Same” (Galleon Pharmaceuticals, Inc., priority 2010, published 2012)
Values after ≈ are worked out from the molar mass of the structure shown. Values joined by “and” are separate entries in the source; they are usually repeats but may differ in a detail not shown here. Identical values can stand only once. “Also recorded” adds a separate entry of the source.

Experiments:
[1] = system: hypoxic ventilatory response in the rat; assay: Hypoxic ventilatory response to 12% O2, plethysmography; format: in vivo; conditions: IV infusion (Table 5: 1, 3 mg/kg/min; text: 3 mg/kg/min), compared to vehicle
Experimental: Rats with a pre-cannulated jugular vein (for administrating drugs) were acclimated to plethysmography chambers for a minimum of 60 minutes, or until animals were no longer restless. Each animal was dosed with (−)-doxapram, (+)-doxapram, or racemic doxapram via infusion into the jugular vein catheter over a period of 15 minutes, at 3 mg/kg/min at 0.020 ml/min based on a 300 gram rat. After a period of 15 minutes, an isocapnic, hypoxic mixture (12% O2 balanced N2) was administered into all chambers using a gas mixer (CWE inc. GSM-3 gas mixer) for 15 minutes. After 15 minutes, the gas mixer was turned off, resulting in normal room air pumped into the chambers. Ten minutes later, the infusion pumps were turned off, and all animals were given a 15 minute recovery period, followed by a post-study analysis of rat health and behavior. […] The small increases in minute ventilation seen towards the end of the experiment in the (−)-doxapram group (i.e. T20-T55) were associated with behavioral toxicities and therefore cannot be distinguished from non-specific side effects. Results are illustrated in FIG. 5 and Table 5.

[2] = system: spontaneously breathing rats; assay: In vivo spirometry: cumulative dose-dependent ventilatory response (maximum peak minute ventilation); set-up: species or system rat
Experimental: (§1) All surgical procedures were performed under anesthesia induced by 2% isoflurane in compressed medical grade air. With rats in supine position, the right femoral vein was catheterized using polyethylene tubing (PE-50). This catheter was used for fluid and drug administration. Simultaneously, the right femoral artery was also catheterized for monitoring blood pressure. In order to measure the respiratory parameters in spontaneously breathing rats, trachea was intubated using 13 gauge tracheal tube (2.5 mm ID, Instech Solomon, Pa.).
After establishing a stable base-line at 1.5% isoflurane, cumulative dose-dependent (1, 3, 10 and 30 mg/kg) ventilatory responses to (−)-doxapram, (+)-doxapram, or racemic doxapram were generated from spontaneously breathing rats. Maximum peak minute ventilatory (MV) values at each dose from corresponding drug were calculated and used for generating ED50 values. Results are illustrated in Table 3 and FIG. 1. All the specific ventilatory stimulant activity of racemic doxapram was associated with the (+)-enantiomer.

[3] = Solubility in EtOH/MeOH for the chromatographic separation; format: physicochemical; conditions: organic solvent or mixture
Experimental: With stirring and sonication, 2.51 g of racemic doxapram were dissolved in approximately 200 mL EtOH/MeOH (50/50 v/v). The solution was injected onto the chromatographic column using the conditions illustrated above. The injection volume was 4 mL, performed every 7 minutes. The appropriate fractions collected from the chromatographic process were concentrated using rotary evaporators at 40° C. and 50 mbar. After solvent removal, the products were dried in a vacuum oven at 40° C. to obtain (−)-doxapram (1.19 g, 95% yield, ?99% e.e.) and (+)-doxapram (1.34 g, 107% yield, ≧99% e.e.). The experimental recovery of (+)-doxapram may have been high due to residual DMEA in the system.
A sample of 19.94 g of racemic doxapram was dissolved in approximately 1.0 L of EtOH/MeOH 80/20 (v/v) with stirring and sonication. The injection volume was 4 mL, and injection was performed every 5.83 min. The appropriate fractions collected from the chromatographic process were concentrated using rotary evaporators at 40° C. and 50 mbar. After solvent removal, the products were dried in a vacuum oven at 40° C. to obtain (−)-doxapram (8.47 g, 85% yield, ≧99% e.e.) and (+)-doxapram (12.50 g, 125% yield, ≧99% e.e.). The experimental recovery of (+)-doxapram may have been high due to residual DMEA in the system.

[4] = system: opioid-induced respiratory depression in the rat; assay: Opioid-induced changes in arterial blood gas parameters, arterial blood gas analysis; format: in vivo; conditions: for Arterial Blood Gases - OIRD, pCO2 (mmHg) and saO2 (%): reversal of opioid-induced respiratory depression: 3 mg/kg/min IV infusion after 10 mg/kg IV morphine, compared to vehicle; for PaCO2: % reversal / PaO2: % reversal / pH % reversal / saO2: % reversal: 3.0 mpk/min IV infusion after morphine 10 mg/kg, vs composite vehicle group, 15 min into 20 min infusion
Experimental: Rats with pre-cannulated jugular vein and femoral arterial catheters (for administrating drugs and obtaining blood samples respectively) were obtained from Harlan laboratories and kept at the animal facility at Galleon Pharmaceuticals until the experimental procedures. All animals experiments were carried out according to the US law on animals care and use approved by Galleon Pharmaceuticals IACUC. Each animal was dosed with morphine sulfate (10 mg/kg), dissolved in saline at a concentration of 10 mg/ml, via injection into the jugular vein over a period of 20 seconds with a 20 second flush of 0.9% NaCl saline. Prior to morphine administration, two 250 μL samples of arterial blood were aspirated from the femoral artery into a pre-heparinized syringe. The samples were analyzed on Radiometer's ABL Flex 800, where pO2, pCO2, pH, saO2 and other parameters were recorded. Aspirated volumes of arterial blood were replaced by room temperature sterile saline (˜300 μL) slowly flushed back into the femoral arterial catheter of the rodent to prevent anemia and/or dehydration. Morphine was then administered and 2 minutes later another blood sample was taken. After a period of 5 min from the administration of morphine, (−)-doxapram, (+)-doxapram or racemic doxapram (15 mg/mL) was administered via infusion into the jugular vein at a rate of 60 μL/min/300 gram rat. The infusion started at t=15 minutes and ended at t=35 minutes. Arterial blood gas analysis occurred at time points t=17, 25, 30, 37, 45, and 50 minutes. […] The small improvements in blood gas parameters seen towards the end of the experiment in the (−)-doxapram group were associated with behavioral toxicities and therefore cannot be distinguished from non-specific side effects. Results are illustrated in Table 4 and FIGS. 3-4.

rat = assay: Cardio-respiratory traces after IV bolus (respiratory flow, volumes, minute ventilation, blood pressure); format: in vivo
Experimental: as §1
The procedure outlined in Example 1 was used herein. […] Results are illustrated in FIG. 6.
The procedure described in Example 1 was used herein to evaluate the effect of (−)-doxapram on mean arterial blood pressure (MAP) in the rat. […] Results are illustrated in FIG. 8.

rats = assay: Observations of animal behavior and adverse effects; format: in vivo, rat
Source text: In Examples 1-7 described above, all rats are observed for behavioral changes and adverse effects, as recognized by those skilled in the art. Such effects include central nervous system and motor effects such as impairment, sedation, and convulsive potential, and mortality. Other effects related to bodily functions are also observable and may include changes in breathing, urination, defecation, posture, and normal cage activities (i.e., grooming, exploring, eating, etc.). […]

[5] = system: opioid-induced respiratory depression in the rat; assay: Opioid-induced respiratory depression, plethysmography (minute ventilation); format: in vivo; conditions: 1, 3 mg/kg/min IV infusion after 10 mg/kg IV morphine; compared to vehicle
Experimental: All animal experiments were carried out according to the US law on animals care and use approved by Galleon Pharmaceuticals Institutional Animal Care and Use Committee (IACUC). Rats with pre-cannulated jugular vein (for administrating drugs) were acclimated to plethysmography chambers for a minimum of 60 minutes, or until animals were no longer restless. Each animal was dosed with morphine sulfate (10 mg/kg), dissolved in sterile water at a concentration of 10 mg/mL (supplied by Baxter Healthcare Corporation), via injection into the jugular vein catheter over a period of 5-10 seconds. After a period of 5 min, (−)-doxapram, (+)-doxapram, or racemic doxapram ([…]) was administered via infusion into the jugular vein at a rate of 0.020 mL/min for a 300 gram rat. Behavioral observations were made though the course of the experiment. After 20 min of infusion at 1 mg/kg/min, the infusion rates were tripled from 0.020 mL/min to 0.060 mL/min for all rats, based on body weight. After 20 minutes of infusion at this dose, the infusion pumps were turned off, and all animals were given a 20 minute recovery period, followed by a post-study analysis of rat health and behavior. […] The small increase in minute ventilation seen towards the end of the experiment in the (−)-doxapram group was associated with behavioral toxicities and therefore cannot be distinguished from non-specific side effects. […]

[6] = Comparative IV pharmacokinetics of a 20 min infusion; format: in vivo; conditions: 20 min infusion of 3 mg/kg/min IV
Experimental: FIG. 9 is a set of graphs illustrating the IV pharmacokinetics of a 20-minute infusion (from 15 minutes to 35 minutes) of 3 mg/kg/min IV (+)-doxapram and (−)-doxapram. The upper panel pharmacokinetic data was plotted on a linear y-axis, the lower panel represents the same data plotted on a log y-axis.
The difference in efficacy and adverse events seen between the enantiomers is therefore due to genuine differences in the intrinsic pharmacodynamics (i.e. pharmacology and side effects profiles) of the enantiomers, as opposed to differential exposures/pharmacokinetics. Results are illustrated in FIG. 9.

CCN1CC(CCN2CCOCC2)C(c2ccccc2)(c2ccccc2)C1=O (racemic) [doxapram, 1-ethyl-4-(2-morphilinoethyl)-3,3-diphenyl-2-pyrrolidinone, reference compound]
Plethysmography (MV), Naïve and HVR: potentiation of hypoxic ventilatory response [1]: significantly potentiated the hypoxic ventilatory response | ED50 ([2]; Rattus norvegicus, IV bolus, cumulative doses 1, 3, 10 and 30 mg/kg, 1.5% isoflurane, maximum peak MV values, read-out: ED50 (mg/kg IV), increase in minute ventilation (MV)): 4.8 mg/kg | potency relative to (+)-enantiomer ([2]; ventilatory stimulant activity, rat IV): approximately 50% | solubility ([3]; in EtOH/MeOH 80/20 (v/v)): 19.9 mg/mL (≈ 52.6 mM) | solubility ([3]; in EtOH/MeOH (50/50 v/v)): 12.6 mg/mL (≈ 33.3 mM) | Arterial Blood Gases - OIRD, pCO2 (mmHg) and saO2 (%): reversal of opioid-induced respiratory depression [4]: significantly reverse opioid-induced respiratory depression | PaCO2: % reversal [4]: 90% | PaO2: % reversal [4]: 22% | pH % reversal [4]: 58% | saO2: % reversal [4]: 33%

CCN1CC(CCN2CCOCC2)C(c2ccccc2)(c2ccccc2)C1=O (single isomer, unassigned; (+)) [(+)-doxapram, (+)-enantiomer of 1-ethyl-4-(2-morphilinoethyl)-3,3-diphenyl-2-pyrrolidinone]
effect on arterial blood pressure and arrhythmias (rat; 30 mg/kg IV bolus): only a minimal reduction in blood pressure without associated arrhythmias | effect on respiratory flow, inspiratory and expiratory volume, minute ventilation (rat; 30 mg/kg IV bolus): increased respiratory flow, inspiratory and expiratory volume, as well as enhanced minute ventilation | Cardiopulmonary response: mean arterial pressure (MAP) (rat; E-Phys, ≧10 mg/kg IV bolus): MAP ↓ | Death (animals out of group of 6) (rats; Pleth., 30 mg/kg IV bolus, 30 mg/kg): 0/6 | adverse effects across the studies (rats; rat, in vivo, iv): did not | Clonic movements (animals out of group of 6) (rats; rat, in vivo, iv, 3 mg/kg): 0/6 | Hunching, static, increased urination & defecation (animals out of group of 6) (rats; rat, in vivo, iv, 3 mg/kg): 0/6 | Plethysmography (MV), Naïve and HVR: potentiation of hypoxic ventilatory response [1]: significantly potentiated the hypoxic ventilatory response; also recorded: Active | ED50 (mg/kg IV), increase in minute ventilation (MV) ([2]; IV bolus, cumulative doses 1, 3, 10 and 30 mg/kg, 1.5% isoflurane, maximum peak MV values): 2.2 mg/kg and 2.1 mg/kg | Plethysmography - OIRD (MV): reversal of opioid-induced respiratory depression [5]: significantly reverses opioid-induced respiratory depression; also recorded: Active | Arterial Blood Gases - OIRD, pCO2 (mmHg) and saO2 (%): reversal of opioid-induced respiratory depression [4]: significantly reverse opioid-induced respiratory depression; also recorded: Active | PaCO2: % reversal [4]: 79% | PaO2: % reversal [4]: 41% | pH % reversal [4]: 49% | saO2: % reversal [4]: 41% | plasma exposure (time course, maximum concentration, AUC, washout), enantiomer vs enantiomer [6]: directly comparable time course, maximum concentration and exposure (AUC)
